Assay results as given in ChEMBL document CHEMBL3507680, “University of Dundee, Gates Library screen for HepG2 cell viability”.

Test: Human HepG2 cell viability assay in 384 well format
Format: toxicity, cell-based
Parameters: dose 125 nL, time 70.5 hour; concentration not given beside the values
Conditions: HepG2 cells, read-out: Inhibition

Structure (SMILES)	cytotoxicity at 70.5 h [%]
CCCS(=O)(=O)N1C[C@H]2OC(=O)N(CCc3cccc(Cl)c3)[C@H]2C1	-4.21
CCOC(=O)[C@@H]1[C@@H](c2ccccc2)CN2CCN(C(=O)N(C)C)C[C@H]12	-5.43
Cn1cc(-c2cc(C(F)F)n3nc(CCC(=O)O)nc3n2)cn1	-4.35
Cc1cc(OC(F)F)c(C(=O)N2CC[C@H](O)C2)s1	-6.12
CCc1cnc(N)nc1NCCCn1nc(C)nc1C	-9.39
CCn1ccc(-c2nnc(SCC(=O)Nc3ccc(C)cc3)n2CC)n1	-13.9
Cc1nnnn1-c1ccc(CC(=O)N2CCOCC(O)C2)cc1 (configuration not stated)	-6.4
COCCN1CCC(CNC(=O)C2(c3ccc(F)cc3)CCC2)CC1	-0.878
CCC[C@H]1CN(C(=O)c2ccc3[nH]c(CO)nc3c2)C[C@@H]1N	-27.1
O=C(Nc1cccnc1)NC1CCN(c2ccccc2OC(F)F)C1 (configuration not stated)	-3.6
Cc1nc(O)ccc1C(=O)N1CCCC1c1nc(-c2ccccc2)n[nH]1 (configuration not stated)	0.447
O=C(CCc1ccccc1)N1CCC(N2CCNC2=O)CC1	-8.47
Cc1cs/c(=N\C(=O)Cn2nc(N3CCC(C)CC3)ccc2=O)[nH]1	-9.83
Cc1ccc2cccc(C(=O)N3CCN(c4cccnn4)CC3)c2n1	-9.4
COC1CCN(Cc2csc(C(C)C)n2)CC1	-5.9
Cc1cc(C(=O)N2CCC3(CCNCC3)CC2)c2cccc(C)c2n1	43.8
CS(=O)(=O)Nc1cccc(CNC(=O)c2cccs2)c1	19
Cc1cccc(CN2CC[C@H]3OCC[C@@]3(C(=O)N3CCOCC3)C2)n1	-4.06
O=C(COc1coc(CN2CCCC2)cc1=O)Nc1cc(Cl)ccc1Cl	-7.96
CN(Cc1nnc2n1CCC2)C(=O)c1ccc2c(c1)OCO2	-11.9
CC(C)CNC(=O)CNc1c(NCc2ccco2)c(=O)c1=O	0.885
CCOc1ccc(S(=O)(=O)NCCCc2ccc(N(C)C)cc2)cc1F	0.733
CCC(=O)NCC(=O)Nc1c(C)cnn1Cc1cc(F)ccc1F	-5.16

Structure (SMILES)	cytotoxicity at 70.5 h [%]
Cc1cc(C2CCCN2C(=O)NCc2c(C)cc(C)[nH]c2=O)on1 (configuration not stated)	-7.29
Cc1ncc2c(n1)CCN(CCCc1nc3ccccc3o1)C2	-2.27
Cn1cc(C(=O)N2CCO[C@@H]3CN(C4CCC4)C[C@@H]3C2)cn1	-3.32
O=C1CCC[C@]2(CN(S(=O)(=O)N3CCOCC3)C[C@H]2c2cccnc2)N1	-4.54
c1cnc(N2CC[C@@H]3O[C@@H](COCc4cccnc4)CC[C@@H]32)nc1	-0.916
COCCN1CCC2(CC1)CC(Nc1ccc(C)nn1)CO2 (configuration not stated)	-2.32
O=C(CC1COCCN1)NCCc1nc(-c2ccccn2)no1 (configuration not stated)	-6.55
Cc1cc(CCC(=O)N2CCCC2)nc(C2CCCN2)n1 (configuration not stated)	-1.61
CC(C1CCN(Cc2cnn(C)c2C2CC2)CC1)N1CCCC1 (configuration not stated)	-7.31
CC(=O)N1CCCC1c1nccc(C)n1 (configuration not stated)	-9.48
COCCN1CCC(CNC(=O)C2(c3cccc(C)c3)CC2)CC1	-4.42
Cc1ncc(C(=O)N2CCOC(C(=O)N3CCCCC3)C2)c(C)n1 (configuration not stated)	-3.05
Cn1cc(C2CCCN2C(=O)c2cn(-c3ccccc3)nn2)cn1 (configuration not stated)	-0.276
CCc1nnc(C(C)N(C)Cc2c(C)nn(-c3ccccc3)c2C)o1 (configuration not stated)	-1.32
CSCC(=O)N1CCOC(c2nc(C(C)C)n[nH]2)C1 (configuration not stated)	-7.67
CNc1cc(CNC(=O)c2cccnc2)nc(-c2ccncc2)n1	-1.87
OCC(CO)N1CCCC(Cc2cnc(Nc3ccccn3)cn2)C1 (configuration not stated)	-3.34
Cc1ccnc(C(=O)N2C[C@@H]3CN(S(C)(=O)=O)CCO[C@@H]3C2)c1	18
Cc1cnn(CC2CCCCN2c2ncnc3ccccc23)c1 (configuration not stated)	-5.59
Cc1cccc(CN2CCC(c3nnc(-c4scnc4C)o3)CC2)c1	0.33
CC(C)(C)c1coc([C@@H]2COCCN2Cc2ccccn2)n1	2.91
CCn1c(CNCC2CCCN2c2cccnn2)nc2ccccc21 (configuration not stated)	-9.03
O=S(=O)(CCN1CCOC(Cn2cncn2)C1)c1ccccc1 (configuration not stated)	-17.9

Structure (SMILES)	cytotoxicity at 70.5 h [%]
Cc1ncsc1C(=O)NCCNC(=O)c1cccs1	-3.7
CNc1ncc(CN2CCC(c3nnsc3S(C)(=O)=O)CC2)cn1	-7.26
Cc1ccc(-c2noc(CN3CC(n4cc(C)cn4)C3)n2)cc1	-0.527
CCNC(=O)N1CCc2ccc(NC(=O)C(C)c3ccsc3)cc21 (configuration not stated)	-11.3
CNC(=O)C1CCN(c2nc3nc[nH]c(=O)c3s2)CC1	-16.7
O=C(CN1CCOCC1)Nc1cc(C(F)(F)F)ccc1-n1cccc1	-3.59
NC1CCCN(Cc2cccc(C(F)(F)F)c2)C1=O (configuration not stated)	-7.1
COc1ccc(C(=O)N2CC(=O)N(C3CCC3)CC(O)C2)cc1OC (configuration not stated)	-5.23
Cc1ccc(-c2nc(C(=O)NCC3CCOC3)cs2)cc1 (configuration not stated)	-15.2
O=C(NC1CCCC1)N1C[C@H]2CN(c3ccncc3)C[C@@]2(C(=O)O)C1	14.8
CC(Cn1cccn1)NC(=O)NCCc1ccsc1 (configuration not stated)	15.4
CC(C)CCS(=O)(=O)N1CCCC(c2nncn2C(C)C)C1 (configuration not stated)	-33.9
O=c1[nH]c2cc3c(cc2cc1CN1CCCC1c1ccccn1)OCO3 (configuration not stated)	-4.33
COCCNC(=O)[C@H]1CN(Cc2scnc2C)C[C@H]2OCC[C@@H]12	-3.43
CN(C)C(c1ccccn1)[C@H]1CC[C@H](CNC(=O)C2CC2)CC1 (some centres not stated)	1.46
CCC(C(=O)NC1CCN(S(C)(=O)=O)CC1)n1cccn1 (configuration not stated)	-7.66
CC(CC(=O)O)CC(=O)Nc1sc2c(c1C(N)=O)CCc1ccccc1-2 (configuration not stated)	19.3
CC[C@@]1(O)CCN(C(=O)c2ccc(-c3ccco3)cc2)C[C@H]1O	-5.37
N#Cc1ccc(CS(=O)(=O)NC(=O)COc2ccc3c(c2)CCC3)cc1	-5.23
COCCN1CCN(Cc2c(C)noc2C)Cc2cccnc21	-4.72
Cc1nc[nH]c1CN1CCc2nc3scc(C)c3c(=O)n2CC1	-1.43
CCC(=O)N1CCCC1c1nccnc1Nc1ncccn1 (configuration not stated)	-15
Cc1noc(C(C)N(C)Cc2ccco2)n1 (configuration not stated)	-6.09

Structure (SMILES)	cytotoxicity at 70.5 h [%]
Cc1nc(S(=O)(=O)N2CCSCC2)cn1C	-2.15
Cc1noc(CN(CCc2ccco2)Cc2cccc(C#N)c2)n1	2.9
Cc1nn(C)c2ncnc(NCc3nncn3C3CCCCC3)c12	-6.04
Cn1cc(-c2cc(C(F)(F)F)nn2CCC#N)cn1	11.5
COCCN1CCCC2(CCN(c3nccnc3N(C)C)C2)C1=O (configuration not stated)	-14.9
Cc1ncsc1CN1C[C@@H](O)[C@](O)(CNC(=O)c2ccccn2)C1	-10.6
CC(C(=O)N1CCCN(c2ccccc2C#N)CC1)n1cccn1 (configuration not stated)	-7.8
COCc1nc(CN2C(=O)OC[C@@H]2C(C)C)no1	-6.26
COc1ccc(C2(NC(=O)CCn3cncn3)CCCCC2)cc1	-6.29
O=C(Cn1ccc2sccc2c1=O)NCCCc1ccccc1	-9.43
NC(c1ccc(F)cc1)c1cccs1 (configuration not stated)	6.42
CC(C)(C)OC(=O)NCC1CCCCN1Cc1ccccn1 (configuration not stated)	1.05
Cc1ncc(CNC(=O)Cc2cccs2)c(C2CCCN2C)n1 (configuration not stated)	-4.94
Cc1nonc1C1CCCN1CCC(=O)N1CCc2ccccc2C1 (configuration not stated)	24.4
O=C(c1ccnc(-n2ccnc2)c1)N1CCCC(n2ccnc2)C1 (configuration not stated)	-15
Cc1nc(-c2ccc(NCCc3ccc(O)cc3)nc2)[nH]c(=O)c1C	3.42
CC(C)C(Sc1nnnn1C1CC1)C(=O)NCc1ccccc1 (configuration not stated)	-7.04
CN1[C@H]2CC[C@@H]1CN(C(=O)c1ccc(-c3ccccc3)[nH]1)CC2	-2.64
Cc1cc(C)n(-c2ccc(N3CCCSCC3)nc2)n1	-0.674
CC(C)=CCCC1(C)C=Cc2c(cc(C)n(CCC(=O)O)c2=O)O1 (configuration not stated)	4.03
Cc1cc(C)c(CNC(=O)CCC2CCCO2)c(=O)[nH]1 (configuration not stated)	-6.31
CC(=O)Nc1ccc(CNCC(O)c2ccccc2)cc1 (configuration not stated)	-2.04
Cc1c(C2SCC(=O)Nc3c2c(O)nn3C2CCCCC2)cnn1C (configuration not stated)	-24.4

Structure (SMILES)	cytotoxicity at 70.5 h [%]
CS(=O)(=O)NCc1cc(-c2cc(F)cc(F)c2)nc(N2CCOCC2)n1	-13.9
Cc1ncc(CN(C)c2nc3c(cnn3C(C)(C)C)c(=O)[nH]2)s1	11.8
O=C(CCNCc1cc(O)c2cc(F)ccc2n1)N1CCCC1	-8.32
CCc1ccc(Cn2nccc2NC(=O)C2CCS(=O)(=O)C2)cc1 (configuration not stated)	-3.51
O=C(CCCn1cncn1)N1CCC2(CC1)[C@H](O)C[C@@H]2OCCO	-6.43
CCSc1ccc(C(=O)N2CCC3(CC2)[C@H](O)C[C@@H]3O)s1	-12.1
CCNC(=O)C1CCN(c2cc(-c3ccccc3F)nc3ccnn23)C1 (configuration not stated)	14.5
O=C(c1ccsc1)N1C[C@@H]2CCN(c3cccnc3)C[C@@H]2C1	-6.89
COc1c(CNC(c2ccc(F)cc2)c2nccn2C)c(C)nn1C (configuration not stated)	45.1
CC(C)(C)n1cc(C2=CCN(CCc3ccccc3)CC2)cn1	-3.25
CCN(CC1CCCN(CCc2cccc(OC)c2)C1)C(=O)CCSC (configuration not stated)	-6.12
Fc1cnc(N2CCC3(CCCN(c4nncs4)C3)C2)nc1 (configuration not stated)	-6.18
Cc1nccn1-c1ccc(C(C)NCc2ncc[nH]2)cc1 (configuration not stated)	12.6
CCN1C[C@@H]2[C@@H](OC)CCN(C(=O)c3cc(C)nn3CC)[C@@H]2C1	8.5
Cc1ccc(C(=O)NS(=O)(=O)c2c(Cl)cccc2Cl)c(=O)[nH]1	-5.05
CC(NC(=O)COc1ccccc1Cl)c1nnc2n1CCC2 (configuration not stated)	-6.92
O[C@H]1CCN(Cc2ccoc2)[C@H]1Cc1cccnc1	30.5
CCCn1cc(C(=O)NC2CCN(CC(=O)NC3CC3)CC2)c(C)n1	0.264
COc1ccccc1Oc1ncccc1CNC(=O)C(C)CN (configuration not stated)	-9.25
Cc1nonc1CN(C)c1nc(-c2cccnc2)nc2c1CCNC2	0.678
